Laboratory results as given in EP4810052A2, “HCRHR2 SELECTIVE POLYPEPTIDES” (Gubra A/S, priority 2023, dated 2026).
Starred links: 1 amine or outer side, 2 acyl side, 3 side chain; linkers in the order of their positions; H or OH if unused. Non-standard residues stand in square brackets, D forms with d. Residues, ends and D or L forms follow the SMILES beside them. Groups on a side chain read outwards from the residue. *: point of attachment. C20 diacid = O=C(O)CCCCCCCCCCCCCCCCCCC(=O)*; γGlu = O=C(O)[C@H](CCC(=O)[*:2])N[*:1]; Nle = CCCC[C@H](N)C(=O)O; AEEA = NCCOCCOCC(=O)O; Aib = CC(C)(N)C(=O)O

What was measured:
rCRHR1 = molecular target: T1, rCRHR1 (Rattus norvegicus, UniProt P35353); assay: cAMP potency, transiently transfected CHO-K1 cells, rCRHR1; format: cell-based; conditions: transiently transfected CHO-K1, average n=3; read-out: Transient cell system EC50 (nM) rCRH R1
T1 construct: DYK (FLAG); host or cells: CHO-K1, transiently transfected
T1 sequence (P35353 24-415): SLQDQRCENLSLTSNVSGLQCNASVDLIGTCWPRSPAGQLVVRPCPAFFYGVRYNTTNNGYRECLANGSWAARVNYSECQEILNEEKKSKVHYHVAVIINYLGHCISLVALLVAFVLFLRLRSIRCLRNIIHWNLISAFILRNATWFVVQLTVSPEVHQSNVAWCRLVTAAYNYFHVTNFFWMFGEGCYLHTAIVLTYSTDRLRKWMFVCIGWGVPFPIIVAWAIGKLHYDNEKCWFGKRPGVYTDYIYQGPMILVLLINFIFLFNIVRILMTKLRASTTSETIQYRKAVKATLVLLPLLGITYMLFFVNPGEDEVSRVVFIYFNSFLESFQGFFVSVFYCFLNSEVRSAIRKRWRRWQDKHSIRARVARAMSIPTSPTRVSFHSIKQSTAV
Method: Selected peptides were tested for potency on different species (mouse, rat, porcine) using transiently transfected CHO-K1 cells using the general procedure.

[1] = Subchronic unilateral ischemia-reperfusion injury (uIRI) in mice; format: in vivo; conditions: for BW at termination / Kidney weight at termination: ± SEM
Text: Male C57BL/6jRj mice were obtained from JanVier (JanVier Labs, France) at 10 weeks of age. The animals were single-housed in Individually Ventilated Cages (IVC from Tecniplast, Typ I SL cage) with free access to water, food and encrichments. Animals were allowed to acclimatize for 7 days prior to study start. After acclimatization, animals were randomized into groups based on body weight; 1) Sham, 2) uIRI - Vehicle, 3) uIRI -SEQ ID NO: 3, 30 nmol/kg and 4) uIRI -SEQ ID NO: 3, 100 nmol/kg.
On study day 0, unilateral ischemia-reperfusion injury (uIRI, 25 min of occlusion followed by reperfusion) was performed on study group 2 - 4 (followed by uninephrectomy (UNx) on study day 6. Animals were subcutaneously dosed once daily starting prior to IRI surgery and until study day 7, where animals were terminated. Here plasma was collected, and the remaining kidney weighed and sampled for histological analysis. Kidneys were stained, analyzed and quantified using the following markers: collagen type-1 (col1a1), F4/80 and KIM-1.

[2] = Telemetry in conscious healthy pigs; format: in vivo; conditions: study A
Method: PK/PD/safety properties of SEQ ID NO: 3 were evaluated in freely moving conscious healthy pigs by […].
In study part A, the effects of an ascending dose regime of SEQ ID NO: 3, (0.03, 0.1, 0.3 and 1.0 mg/kg) was compared to placebo. Primary endpoints were blood pressure, heart rate and ECG measurements.
In study part B, the effect of repeated dosing (once weekly, for 4 weeks) with a single dose of SEQ ID NO: 3 (0.3 mg/kg) was compared to placebo. Primary endpoints were blood pressure, heart rate and ECG measurements.

[3] = Telemetry in Spontaneously Hypertensive Rats; format: in vivo; conditions: for Heart rate / Mean arterial pressure: rats
Text: Blood pressure and heart rate were monitored in freely moving conscious animals by […] (DSI Data Science International, MN, USA). Female adult hypertensive rats (SHR) were implanted with transmitters. After shaving the abdominal wall, a midline abdominal incision was made, and the fluid-filled sensor catheter was inserted upstream into the exposed descending aorta between the iliac bifurcation and the renal arteries. According to the DSI guidelines the tip of the telemetric catheter was located just caudal to the renal arteries and secured by tissue adhesive. The transmitter body was affixed to the inner peritoneal - 3 - wall before closure of abdomen. A two-layer closure of the abdominal incision was used, with individual suturing of the peritoneum and the muscle wall followed by closure of the outer skin. Surgery was performed under aseptic conditions. For postsurgical protection against infections and pain a single dosage of an antibiotic (Ursocyclin 10% pro inj., Serumwerk, s.c.) and analgesic were injected (Rimadyl®, 4 mg/kg s.c., Pfizer, Germany). All animals were single-housed at 22-24°C ambient temperature and maintained on a 12/12 h dark-light cycle with free access to standard laboratory rat chow and water ad libitum.
All animals were treated with daily s.c. doses of vehicle or SEQ ID NO: 3, (10 or 30 nmol/kg) for 7 days (1 ml/kg). Drug administration took place at 9.00 a.m. (= 0 hours). For analysis, data were grouped to provide half-hourly averages.
For statistical analysis, 24 hours means were calculated starting from time of dosing. All data were evaluated using a 2-way ANOVA with Dunnett's test.

[4] = 100 nmol/kg, compared to uIRI vehicle
[5] = SHR rats, daily s.c. 10 or 30 nmol/kg for 7 days

CCCC[C@H](NC(=O)[C@@H](NC(=O)[C@H](CCC(=O)O)NC(=O)[C@H](C)NC(=O)[C@H](CC(N)=O)NC(=O)C(C)(C)NC(=O)[C@H](CCCCNC(=O)COCCOCCNC(=O)COCCOCCNC(=O)CC[C@H](NC(=O)CC[C@H](NC(=O)CCCCCCCCCCCCCCCCCCC(=O)O)C(=O)O)C(=O)O)NC(=O)[C@H](C)NC(=O)[C@H](CCC(N)=O)NC(=O)[C@H](CCC(=O)O)NC(=O)[C@H](CCCNC(=N)N)NC(=O)[C@H](C)NC(=O)[C@H](C)NC(=O)[C@H](CCCNC(=N)N)NC(=O)[C@H](C)NC(=O)[C@H](CCCNC(=N)N)NC(=O)[C@H](C)NC(=O)[C@H](CCC(N)=O)NC(=O)[C@H](CO)NC(=O)[C@H](CC(C)C)NC(=O)[C@H](CC(C)C)NC(=O)[C@@H](NC(=O)[C@H](CCC(N)=O)NC(=O)[C@H](CC(C)C)NC(=O)[C@H](CC(C)C)NC(=O)CNC(=O)[C@@H](NC(=O)[C@@H]1CCCN1C(=O)[C@@H](NC(=O)[C@H](CC(=O)O)NC(=O)[C@H](CC(C)C)NC(=O)[C@H](CO)NC(=O)[C@H](CC(C)C)NC(=O)[C@@H](NC(=O)[C@@H]1CCCN1)C(C)C)C(C)C)[C@@H](C)CC)[C@@H](C)CC)[C@@H](C)CC)C(=O)N[C@@H](C)C(=O)N[C@@H](CCC(=O)O)C(=O)N[C@H](C(N)=O)C(C)C [SEQ ID NO: 238] (H-PVLSLDVPIGLLQILLSQARARAAREQAK([AEEA-AEEA-γGlu-γGlu-C20 diacid])[Aib]NAEI[Nle]AEV-NH2)
EC50 (rCRHR1): > 1000 nM

CC[C@H](C)[C@H](N)C(=O)N[C@H](C(=O)N[C@@H](CC(C)C)C(=O)N[C@@H](CO)C(=O)N[C@@H](CC(C)C)C(=O)N[C@@H](CC(=O)O)C(=O)N[C@H](C(=O)N1CCC[C@H]1C(=O)N[C@H](C(=O)NCC(=O)N[C@@H](CC(C)C)C(=O)N[C@@H](CC(C)C)C(=O)N[C@@H](CCC(N)=O)C(=O)N[C@H](C(=O)N[C@@H](CC(C)C)C(=O)N[C@@H](CC(C)C)C(=O)N[C@@H](CCC(=O)O)C(=O)N[C@@H](CCC(N)=O)C(=O)N[C@@H](C)C(=O)N[C@@H](CCCNC(=N)N)C(=O)N[C@@H](C)C(=O)N[C@@H](CCCNC(=N)N)C(=O)N[C@@H](C)C(=O)N[C@@H](C)C(=O)N[C@@H](CCCNC(=N)N)C(=O)N[C@@H](CCC(=O)O)C(=O)N[C@@H](CCC(N)=O)C(=O)N[C@@H](C)C(=O)N[C@@H](CCCCNC(=O)COCCOCCNC(=O)COCCOCCNC(=O)CC[C@H](NC(=O)CC[C@H](NC(=O)CCCCCCCCCCCCCCCCCCC(=O)O)C(=O)O)C(=O)O)C(=O)N[C@H](C(=O)N[C@@H](CC(N)=O)C(=O)N[C@@H](C)C(=O)N[C@@H](CCC(=O)O)C(=O)N[C@H](C(=O)N[C@@H](CC(C)C)C(=O)N[C@@H](C)C(=O)N[C@@H](CCC(=O)O)C(=O)N[C@H](C(N)=O)C(C)C)[C@@H](C)CC)[C@@H](C)O)[C@@H](C)CC)[C@@H](C)CC)C(C)C)C(C)C [SEQ ID NO: 3] (H-IVLSLDVPIGLLQILLEQARARAAREQAK([AEEA-AEEA-γGlu-γGlu-C20 diacid])TNAEILAEV-NH2)
Renal fibrosis, Col1a1 ([1]; 30 nmol/kg): 34.3 ± 2.3 fractional area % | Renal inflammation, F4/80 ([1]; 30 nmol/kg): 7.3 ± 0.6 fractional area % | Renal injury, KIM-1 ([1]; 30 nmol/kg): 7.48 ± 0.49 fractional area % | Serum creatinine ([1]; 30 nmol/kg): 1.83 ± 0.004 mg/dL | Serum urea ([1]; 30 nmol/kg): 463.0 ± 10.5 mg/dL | BW at termination ([1]; 30 nmol/kg): 24.4 ± 0.5 g | Kidney weight at termination ([1]; 30 nmol/kg): 0.16 ± 0.005 g | Renal fibrosis, Col1a1 ([1]; 100 nmol/kg): 26.4 ± 1.4 fractional area % | Renal inflammation, F4/80 ([1]; 100 nmol/kg): 2.5 ± 0.6 fractional area % | Renal injury, KIM-1 ([1]; 100 nmol/kg): 6.00 ± 0.50 fractional area % | Serum creatinine ([1]; 100 nmol/kg): 1.17 ± 0.13 mg/dL | Serum urea ([1]; 100 nmol/kg): 433 ± 22.5 mg/dL | kidney fibrosis [1, 4]: reduced | kidney inflammation [1, 4]: reduced | serum levels of creatinine [1, 4]: reduced | BW at termination ([1]; 100 nmol/kg): 21.8 ± 0.4 g | Kidney weight at termination ([1]; 100 nmol/kg): 0.16 ± 0.006 g | Heart rate [2]: remained unaffected | mean arterial blood pressure [2]: remained unaffected | relaxation of the left ventricle [2]: not affected | systemic or cardiac hemodynamics (LV end diastolic pressure, time constant of relaxation, baroreceptor sensitivity, heart rate variability) [2]: No relevant findings | PR-Interval ([2]; ECG): slight decrease | QT-Interval ([2]; ECG): unaffected | inotropic effects (contractility) ([2]; ascending s.c. doses 0.03-1.0 mg/kg): long-lasting positive ionotropic effects | HR [3, 5]: transient and dose-dependent increase | blood pressure [3, 5]: transient and dose-dependent decrease | Heart rate ([3]; 10 nmol/kg, Day 0): 345.67 ± 5.3 BPM | Mean arterial pressure ([3]; 10 nmol/kg, Day 0): 130.83 ± 2.1 mmHg | Heart rate ([3]; 10 nmol/kg, Day 1): 330.67 ± 6.2 BPM | Mean arterial pressure ([3]; 10 nmol/kg, Day 1): 130.33 ± 1.8 mmHg | Heart rate ([3]; 10 nmol/kg, Day 2): 324.00 ± 5.2 BPM | Mean arterial pressure ([3]; 10 nmol/kg, Day 2): 136.17 ± 2.0 mmHg | Heart rate ([3]; 10 nmol/kg, Day 3): 324.00 ± 5.2 BPM | Mean arterial pressure ([3]; 10 nmol/kg, Day 3): 139.17 ± 2.3 mmHg | Heart rate ([3]; 10 nmol/kg, Day 4): 323.33 ± 7.4 BPM | Mean arterial pressure ([3]; 10 nmol/kg, Day 4): 137.67 ± 2.4 mmHg | Heart rate ([3]; 10 nmol/kg, Day 5): 320.50 ± 7.0 BPM | Mean arterial pressure ([3]; 10 nmol/kg, Day 5): 139.00 ± 2.9 mmHg | Heart rate ([3]; 10 nmol/kg, Day 6): 315.67 ± 7.2 BPM | Mean arterial pressure ([3]; 10 nmol/kg, Day 6): 138.50 ± 2.4 mmHg | Heart rate ([3]; 10 nmol/kg, Day -1): 314.50 ± 4.8 BPM | Mean arterial pressure ([3]; 10 nmol/kg, Day -1): 145.33 ± 3.1 mmHg | Heart rate ([3]; 30 nmol/kg, Day 0): 364.50 ± 5.4 BPM | Mean arterial pressure ([3]; 30 nmol/kg, Day 0): 126.25 ± 2.5 mmHg | Heart rate ([3]; 30 nmol/kg, Day 1): 334.00 ± 4.8 BPM | Mean arterial pressure ([3]; 30 nmol/kg, Day 1): 130.00 ± 2.4 mmHg | Heart rate ([3]; 30 nmol/kg, Day 2): 327.50 ± 2.7 BPM | Mean arterial pressure ([3]; 30 nmol/kg, Day 2): 141.00 ± 3.1 mmHg | Heart rate ([3]; 30 nmol/kg, Day 3): 325.88 ± 4.2 BPM | Mean arterial pressure ([3]; 30 nmol/kg, Day 3): 142.50 ± 2.7 mmHg | Heart rate ([3]; 30 nmol/kg, Day 4): 325.38 ± 6.4 BPM | Mean arterial pressure ([3]; 30 nmol/kg, Day 4): 141.00 ± 3.1 mmHg | Heart rate ([3]; 30 nmol/kg, Day 5): 323.50 ± 5.5 BPM | Mean arterial pressure ([3]; 30 nmol/kg, Day 5): 141.75 ± 2.6 mmHg | Heart rate ([3]; 30 nmol/kg, Day 6): 328.88 ± 5.8 BPM | Mean arterial pressure ([3]; 30 nmol/kg, Day 6): 141.75 ± 2.7 mmHg | Heart rate ([3]; 30 nmol/kg, Day -1): 322.38 ± 5.9 BPM | Mean arterial pressure ([3]; 30 nmol/kg, Day -1): 148.88 ± 3.1 mmHg
